Measurements reported in patent US20170096629A1, “FILTRATION DEVICE AND SYSTEM” (Universite Technologie de Compiegne - UTC, priority 2009, published 2017).

Assay: diffusion coefficient of molecules through a filtration membrane, co-current filtration system, regression of analytic model
Type: physicochemical
Conditions: least-squares regression of analytic model on concentration ratio versus time
Source text: Such systems may also be used for characterizing a filtration membrane 130. For example, it is possible to evaluate a diffusion coefficient of a molecule for a given membrane 130 from a physical model and measurements of concentration of the molecule in the first chamber 110 and/or the second chamber 120 versus time. The co-current system may be used for calibrating the model and estimating the diffiusion coefficient, and the countercurrent system may be used for checking the diffusion coefficient or vice versa.
In particular, the applicant modeled the time-dependent change of the concentration in the first chamber 110, in the case when a fluid to be filtered circulates in the second chamber 120, with the following equations: • in the case of a co-current flow (like in FIG. 9): […]
and • C1(t) represents the concentration in the first chamber 110 as a function of time t, • L represents the (common) length of the first and second chambers 110, 120, • b represents the (common) width of the first and second chambers 110, 120, • Qf represents the filtration flow rate, • V1 represents the volume of the first chamber 110, • V2 represents the volume of the second chamber 120, • C1o represents the initial concentration in the first chamber 110, • C1∞ represents the equilibrium concentration in the first chamber 110, • Dm represents the diffusion coefficient of the molecule to be filtered for the membrane 130, and • δ represents the thickness of the membrane.
By means of these models, it is possible to determine the values of the diffusion coefficient Dm of the molecules tested for a given membrane 130. For this, for example it is possible to operate in the co-current mode and measure the disappearance of the molecule in the second chamber 120 (and therefore its appearance in the first chamber 110).
In FIGS. 11 and 12 the change in the concentration-over-initial-concentration-in-the-second-chamber 120 ratio is illustrated versus time for given experimental conditions, for urea (FIG. 11) and vitamin B12 (FIG. 12) respectively, with several types of membrane. Moreover, the applicant has also determined this ratio for albumin (graph not shown).
The experimental results are illustrated, for an experiment with a membrane of high porosity (of the 8F type) by icons □, Δ, and for an experiment with a membrane of low porosity (of the 1 FPH type) by icons: *, ◯. A regression of the analytic model is then made for example with a minimization by least squares, in which it is possible to obtain experimentally the diffusion coefficients in (m^2/s) listed in the following table: […]

Row | Compound | diffusion coefficient Dm (membrane 1 FPH (low porosity)) | diffusion coefficient Dm (membrane 8F (high porosity))
1 | NC(N)=O [Urea, urea] | 2 × 10^−12 m^2/s | 2 × 10^−11 m^2/s
2 | albumin | 9 × 10^−14 m^2/s | 2 × 10^−13 m^2/s
3 | vitamin B12 | 4 × 10^−13 m^2/s | 6 × 10^−12 m^2/s
